Test results: patent US20230256120A1, “DIAGNOSTIC AGENT FOR PANCREATIC FUNCTION” (HAMAMATSU PHOTONICS K.K., priority 2020, published 2023)

System: MC-I in the pancreas
Assay: PET measurement of [^18F]BCPP-BF accumulation in the pancreas of type II diabetes model rats
Type: in vivo, rat
Settings: fatty rats versus lean rats; PET measurement method; after 5 weeks of age; FIG. 2(A)
Source text: Male Zucker Leprfa/Leprfa rats (hereinafter also referred to as “fatty rats”) that develop pathological conditions similar to type II diabetes of human adults and male Zucker Leprfa/+ rats (hereinafter also referred to as “lean rats”) as controls thereof were purchased from Charles River Laboratories Japan, Inc., and used for PET measurement at 5, 8, 16, and 26 weeks of age.
The rats were anesthetized with isoflurane and fixed in a gantry of an animal PET camera (SHR-38000, manufactured by Hamamatsu Photonics K.K.). […] After the completion of the PET measurement, a region of interest was set on the pancreas identified from an accumulated PET image 40 to 60 minutes after the administration of D-[^11C]MT, and the amount of [^18F]BCPP-BF accumulated in the region of interest was calculated. Subsequently, the calculated accumulation amount was normalized by the amount of radioactivity administered and the body weight of each individual and defined as an amount (amount (SUV) of radioactivity administered) of [^18F]BCPP-BF accumulated in the pancreas.
The pancreas was excised from each rat immediately after the completion of the PET measurement, and the weight of the excised pancreas was measured. Subsequently, the radioactivity of the excised pancreas was measured using a gamma counter (manufactured by PerkinElmer Inc., 1480 WIZARD). […]

uptake (SUV) of [^18F]BCPP-BF in the pancreas: decreased
SMILES: CC(C)(C)n1ncc(OCc2ccc(OCCCC[18F])nc2)c(Cl)c1=O [[^18F]BCPP-BF]
